Measured values reported in patent US20260232767A1, “INTERLEUKIN-23 RECEPTOR ANTAGONIST PEPTIDES FOR USE IN THE TREATMENT OF PSORIASIS” (Janssen Pharmaceutica NV, priority 2023, published 2026).

System: subjects with moderate-to-severe plaque psoriasis
Experiment: Safety, adverse events, Example 2 through Week 56
Format: in vivo, human
Conditions: through Week 56; for Subjects with 1 or more Serious adverse events: Tonsillar hypertrophy / Subjects with 1 or more Serious adverse events: Uterine leiomyoma / Subjects with 1 or more Serious adverse events: Ventricular dysfunction / Subjects with 1 or more treatment-emergent adverse events leading to discontinuation of study agent / Subjects with 1 or more Adverse events / Subjects with 1 or more Adverse events: Alanine aminotransferase increased / Subjects with 1 or more Adverse events: Arthralgia / Subjects with 1 or more Adverse events: Aspartate aminotransferase increased / Subjects with 1 or more Adverse events: Bronchitis / Subjects with 1 or more Adverse events: COVID-19 / Subjects with 1 or more Adverse events: Cough / Subjects with 1 or more Adverse events: Diarrhea / Subjects with 1 or more Adverse events: Headache / Subjects with 1 or more Adverse events: Influenza / Subjects with 1 or more Adverse events: Nasopharyngitis / Subjects with 1 or more Adverse events: Upper respiratory tract infection / Subjects with 1 or more Adverse events: Urinary tract infection / Subjects with 1 or more Serious adverse events / Subjects with 1 or more Serious adverse events: COVID-19 / Subjects with 1 or more Serious adverse events: Cerebrovascular accident / Subjects with 1 or more Serious adverse events: Coronary artery disease / Subjects with 1 or more Serious adverse events: Diverticulitis / Subjects with 1 or more Serious adverse events: Foot deformity / Subjects with 1 or more Serious adverse events: Infected cyst / Subjects with 1 or more Serious adverse events: Intervertebral disc protrusion / Subjects with 1 or more Serious adverse events: Ligament injury / Subjects with 1 or more Serious adverse events: Non-cardiac chest pain / Subjects with 1 or more Serious adverse events: Suicide attempt: number of subjects
Excerpt: The LTE safety analysis was based on randomized participants in Example who entered the present long-term extension study and received at least one dose of study intervention (including a partial dose) during the study period.

[1] = Placebo → 100 mg QD after crossover

CC(=O)NCCCC[C@@H]1NC(=O)[C@H](Cc2c[nH]c3c(C)cccc23)NC(=O)[C@H]([C@@H](C)O)NC(=O)[C@H](CC(N)=O)NC(=O)[C@@H](NC(C)=O)C(C)(C)SSC(C)(C)[C@@H](C(=O)N[C@@H](Cc2ccc(OCCN)cc2)C(=O)N[C@@H](Cc2ccc3ccccc3c2)C(=O)NC2(C(=O)N[C@@H](CCC(=O)O)C(=O)N[C@@H](CC(N)=O)C(=O)N[C@@H](Cc3cccnc3)C(=O)N(C)CC(N)=O)CCOCC2)NC1=O [IL-23 receptor antagonist peptide, Ac-[Pen]*-N-T-[W(7-Me)]-[Lys(Ac)]-[Pen]*-Phe[4-(2-aminoethoxy)]-[2-Nal]-[THP]-E-N-[3-Pal]-Sarc-NH2 (*[Pen]-[Pen]* formdisulfidebond)]
32: Subjects with 1 or more Adverse events (100 mg BID)
174: Subjects with 1 or more Adverse events (Combined)
2: Subjects with 1 or more treatment-emergent adverse events leading to discontinuation of study agent (50 mg QD) | Subjects with 1 or more Adverse events: Arthralgia (100 mg BID) | Subjects with 1 or more Adverse events: Cough (100 mg BID) | Subjects with 1 or more Adverse events: Urinary tract infection (100 mg BID) | Subjects with 1 or more Adverse events: Upper respiratory tract infection (100 mg QD) | Subjects with 1 or more treatment-emergent adverse events leading to discontinuation of study agent (100 mg QD) | Subjects with 1 or more Adverse events: Alanine aminotransferase increased [1] | Subjects with 1 or more Adverse events: COVID-19 [1] | Subjects with 1 or more Adverse events: Urinary tract infection [1]
11: Subjects with 1 or more Adverse events: Nasopharyngitis (100 mg QD) | Subjects with 1 or more Adverse events: Diarrhea (Combined) | Subjects with 1 or more Serious adverse events (Combined)
10: Subjects with 1 or more treatment-emergent adverse events leading to discontinuation of study agent (Combined)
8: Subjects with 1 or more Adverse events: Arthralgia (Combined) | Subjects with 1 or more Adverse events: Cough (Combined) | Subjects with 1 or more Adverse events: Urinary tract infection (Combined)
5: Subjects with 1 or more Adverse events: Nasopharyngitis (100 mg BID) | Subjects with 1 or more Adverse events: Upper respiratory tract infection (100 mg BID) | Subjects with 1 or more Adverse events: COVID-19 (100 mg QD) | Subjects with 1 or more Adverse events: Headache (100 mg QD)
24: Subjects with 1 or more Adverse events: Upper respiratory tract infection (Combined)
(16.7%): Subjects with Gastrointestinal disorders (system organ class)
49: Subjects with 1 or more Adverse events: Nasopharyngitis (Combined)
12: Subjects with 1 or more Adverse events: Headache (Combined)
(11.6%): Subjects with Headache
1: Subjects with 1 or more Adverse events: Diarrhea (100 mg BID) | Subjects with 1 or more Adverse events: Headache (100 mg BID) | Subjects with 1 or more Adverse events: Influenza (100 mg BID) | Subjects with 1 or more Serious adverse events (100 mg BID) | Subjects with 1 or more Serious adverse events: Uterine leiomyoma (100 mg BID) | Subjects with 1 or more treatment-emergent adverse events leading to discontinuation of study agent (100 mg BID) | Subjects with 1 or more Adverse events: Diarrhea (100 mg QD) | Subjects with 1 or more Adverse events: Influenza (100 mg QD) | Subjects with 1 or more Serious adverse events: COVID-19 (100 mg QD) | Subjects with 1 or more Serious adverse events: Diverticulitis (100 mg QD) | Subjects with 1 or more Serious adverse events: Intervertebral disc protrusion (100 mg QD) | Subjects with 1 or more Serious adverse events: Suicide attempt (100 mg QD) | Subjects with 1 or more Serious adverse events: COVID-19 (Combined) | Subjects with 1 or more Serious adverse events: Cerebrovascular accident (Combined) | Subjects with 1 or more Serious adverse events: Coronary artery disease (Combined) | Subjects with 1 or more Serious adverse events: Diverticulitis (Combined) | Subjects with 1 or more Serious adverse events: Foot deformity (Combined) | Subjects with 1 or more Serious adverse events: Infected cyst (Combined) | Subjects with 1 or more Serious adverse events: Intervertebral disc protrusion (Combined) | Subjects with 1 or more Serious adverse events: Ligament injury (Combined) | Subjects with 1 or more Serious adverse events: Non-cardiac chest pain (Combined) | Subjects with 1 or more Serious adverse events: Suicide attempt (Combined) | Subjects with 1 or more Serious adverse events: Tonsillar hypertrophy (Combined) | Subjects with 1 or more Serious adverse events: Uterine leiomyoma (Combined) | Subjects with 1 or more Serious adverse events: Ventricular dysfunction (Combined) | Subjects with 1 or more Adverse events: Arthralgia [1] | Subjects with 1 or more Adverse events: Aspartate aminotransferase increased [1] | Subjects with 1 or more Adverse events: Bronchitis [1] | Subjects with 1 or more Adverse events: Diarrhea [1] | Subjects with 1 or more Adverse events: Influenza [1] | Subjects with 1 or more Serious adverse events [1] | Subjects with 1 or more Serious adverse events: Cerebrovascular accident [1]
31: Subjects with 1 or more Adverse events (100 mg QD)
9: Subjects with 1 or more Adverse events: Alanine aminotransferase increased (Combined) | Subjects with 1 or more Adverse events: Bronchitis (Combined) | Subjects with 1 or more Adverse events: Nasopharyngitis [1]
4: Subjects with 1 or more Adverse events: Alanine aminotransferase increased (100 mg BID) | Subjects with 1 or more Adverse events: Upper respiratory tract infection [1]
35: Subjects with 1 or more Adverse events: COVID-19 (Combined)
7: Subjects with 1 or more Adverse events: COVID-19 (100 mg BID) | Subjects with 1 or more Adverse events: Aspartate aminotransferase increased (Combined) | Subjects with 1 or more Adverse events: Influenza (Combined)
3: Subjects with 1 or more Adverse events: Aspartate aminotransferase increased (100 mg BID) | Subjects with 1 or more Adverse events: Arthralgia (100 mg QD) | Subjects with 1 or more Adverse events: Cough (100 mg QD) | Subjects with 1 or more Serious adverse events (100 mg QD)
0: Subjects with 1 or more Serious adverse events: Tonsillar hypertrophy (50 mg QD) | Subjects with 1 or more Serious adverse events: Uterine leiomyoma (50 mg QD) | Subjects with 1 or more Serious adverse events: Ventricular dysfunction (50 mg QD) | Subjects with 1 or more Adverse events: Bronchitis (100 mg BID) | Subjects with 1 or more Serious adverse events: COVID-19 (100 mg BID) | Subjects with 1 or more Serious adverse events: Cerebrovascular accident (100 mg BID) | Subjects with 1 or more Serious adverse events: Coronary artery disease (100 mg BID) | Subjects with 1 or more Serious adverse events: Diverticulitis (100 mg BID) | Subjects with 1 or more Serious adverse events: Foot deformity (100 mg BID) | Subjects with 1 or more Serious adverse events: Infected cyst (100 mg BID) | Subjects with 1 or more Serious adverse events: Intervertebral disc protrusion (100 mg BID) | Subjects with 1 or more Serious adverse events: Ligament injury (100 mg BID) | Subjects with 1 or more Serious adverse events: Non-cardiac chest pain (100 mg BID) | Subjects with 1 or more Serious adverse events: Suicide attempt (100 mg BID) | Subjects with 1 or more Serious adverse events: Tonsillar hypertrophy (100 mg BID) | Subjects with 1 or more Serious adverse events: Ventricular dysfunction (100 mg BID) | Subjects with 1 or more Adverse events: Alanine aminotransferase increased (100 mg QD) | Subjects with 1 or more Adverse events: Aspartate aminotransferase increased (100 mg QD) | Subjects with 1 or more Adverse events: Bronchitis (100 mg QD) | Subjects with 1 or more Adverse events: Urinary tract infection (100 mg QD) | Subjects with 1 or more Serious adverse events: Cerebrovascular accident (100 mg QD) | Subjects with 1 or more Serious adverse events: Coronary artery disease (100 mg QD) | Subjects with 1 or more Serious adverse events: Foot deformity (100 mg QD) | Subjects with 1 or more Serious adverse events: Infected cyst (100 mg QD) | Subjects with 1 or more Serious adverse events: Ligament injury (100 mg QD) | Subjects with 1 or more Serious adverse events: Non-cardiac chest pain (100 mg QD) | Subjects with 1 or more Serious adverse events: Tonsillar hypertrophy (100 mg QD) | Subjects with 1 or more Serious adverse events: Uterine leiomyoma (100 mg QD) | Subjects with 1 or more Serious adverse events: Ventricular dysfunction (100 mg QD) | Subjects with 1 or more Adverse events: Cough [1] | Subjects with 1 or more Adverse events: Headache [1] | Subjects with 1 or more Serious adverse events: COVID-19 [1] | Subjects with 1 or more Serious adverse events: Coronary artery disease [1] | Subjects with 1 or more Serious adverse events: Diverticulitis [1] | Subjects with 1 or more Serious adverse events: Foot deformity [1] | Subjects with 1 or more Serious adverse events: Infected cyst [1] | Subjects with 1 or more Serious adverse events: Intervertebral disc protrusion [1] | Subjects with 1 or more Serious adverse events: Ligament injury [1] | Subjects with 1 or more Serious adverse events: Non-cardiac chest pain [1] | Subjects with 1 or more Serious adverse events: Suicide attempt [1] | Subjects with 1 or more Serious adverse events: Tonsillar hypertrophy [1] | Subjects with 1 or more Serious adverse events: Uterine leiomyoma [1] | Subjects with 1 or more Serious adverse events: Ventricular dysfunction [1] | Subjects with 1 or more treatment-emergent adverse events leading to discontinuation of study agent [1] | Subjects with Abdominal distension | Subjects with Abscess limb | Subjects with Constipation
23: Subjects with 1 or more Adverse events [1]
